Source: patent publication US20240285571A1, “METHODS OF TREATING BONE INFECTIONS” (MICROBION CORPORATION, priority 2020, published 2024)
≈ marks a conversion by molar mass, not a printed value. Like-named read-outs stand apart in the source and are kept apart here.

What was measured:
S. aureus = test: Broth microdilution MIC (Example 5); format: cell-based, Staphylococcus aureus; settings: Staphylococcus aureus
Experimental: (§1) Test and Comparator Agents: The test agents were stored at room temperature until assayed. […] The stock solutions were allowed to stand for at least 1 hr prior to use to auto-sterilize.
(§2) TestMedia: Test media were prepared and stored in accordance with guidelines from CLSI (4, 6, 7).
(§3) Broth Microdilution MC Testing (Aerobic Bacteria and Yeast): The broth microdilution assay method employed for the susceptibility testing of aerobic bacteria (excluding N. gonorrhoeae which was evaluated by agar dilution) and yeast essentially followed the procedures described by CLSI (3, 4, 7, 8) and employed automated liquid handlers to conduct serial dilutions and liquid transfers. […] These would become the ‘mother plates’ from which ‘daughter’ or test plates would be prepared. The drugs (300 μL at 40× the desired top concentration in the test plates) were dispensed into the appropriate well in Column 1 of the mother plates. The Biomek 2000 was used to make serial two-fold dilutions through Column 11 in the “mother plate”. The wells of Column 12 contained no drug and ultimately served as the organism growth control wells.
(§4) The daughter plates were prepared using the Biomek FX which transferred 5 μL of drug solution from each well of a mother plate to the corresponding well of the correct daughter plate in a single step.
(§5) A standardized inoculum of each organism was prepared per CLSI methods (3, 7). Isolated colonies of each test isolate were picked from the primary plate and a suspension was prepared to equal a 0.5 McFarland turbidity standard. Standardized suspensions were then diluted […] (1:100 for yeast, 1:20 for bacteria). After dilution, the inoculum suspensions were then transferred to compartments of sterile reservoirs divided by length (Beckman Coulter), and the Biomek 2000 was used to inoculate all plates. Daughter plates were placed on the Biomek 2000 in reverse orientation so that plates were inoculated from low to high drug concentration.
(§6) The Biomek 2000 delivered 10 μL of standardized inoculum into each well of the appropriate daughter plate for an additional 1:20 dilution.
(§7) Plates were stacked 4 high, covered with a lid on the top plate, placed into plastic bags, and incubated at 35° C. for approximately 24-48 hr for all yeast isolates and 16-24 hr for aerobic bacteria. Plates were viewed from the bottom using a plate viewer. […] MIC endpoints for the test agents and control compounds were read per CLSI criteria (3, 7).

S. pneumoniae [1] = test: Broth microdilution MIC (Example 5); format: cell-based
Experimental: as §1, §2, §3, §4, §5, §6, §7

E. faecium = test: Broth microdilution MIC (Example 5); format: cell-based
Experimental: as §1, §2, §3, §4, §5, §6, §7

S. agalactiae = test: Broth microdilution MIC (Example 5); format: cell-based
Experimental: as §1, §2, §3, §4, §5, §6, §7

S. pyogenes = test: Broth microdilution MIC (Example 5); format: cell-based
Experimental: as §1, §2, §3, §4, §5, §6, §7

E. faecalis = test: Broth microdilution MIC (Example 5); format: cell-based, Enterococcus faecalis; settings: VRE
Experimental: as §1, §2, §3, §4, §5, §6, §7

S. pneumoniae [2] = settings: S. pneumoniae MMX 6837 (ATCC 49619); cited from earlier work
[3] = tested on: vancomycin-intermediate Staphylococcus aureus; test: Broth microdilution MIC (Example 6); format: cell-based; settings: Staphylococcus aureus, NRS 13 / VISA, read-out: MIC values
Experimental: Test Compounds: The test agents BisEDT (MB-1-B3; Lot No. ED268-1-11-01), MB-2B, and MB-6 were stored at room temperature, in the dark, until assayed. The solvent and diluent for the test agents was DMSO (Sigma; St. Louis, MO; Lot No. SHBB9319V) and the prepared stock concentration was 6,464 μg/mL (101× the final test concentration).
Test compounds were evaluated at a concentration range of 0.06-64 μg/mL. For Gram-negative test isolates, amikacin and ceftazidime (alone and with clavulanate at a fixed concentration of 4 μg/mL) were evaluated over a concentration range of 0.06-64 μg/mL; meropenem and levofloxacin were evaluated over a concentration range of 0.008-8 μg/mL. For the testing of S. aureus, clindamycin, daptomycin, levofloxacin and vancomycin were evaluated at a concentration range of 0.008-8 μg/mL; linezolid was tested from 0.03-32 μg/mL.
Media: Cation-adjusted Mueller Hinton broth (CAMHB; BD; Lot No. 8190586) was used as the medium for testing (2, 3). For testing daptomycin, calcium was supplemented with […] Ca^2+, resulting in a final concentration of […] Ca^2+ (2, 3).
MIC Assay Procedure: MIC values were determined using a broth microdilution procedure described by CLSI (2, 3). Automated liquid handlers (Multidrop 384, Labsystems, Helsinki, Finland; Biomek 2000 and Biomek F X, Beckman Coulter, Fullerton CA) were used to conduct serial dilutions and liquid transfers.
To prepare the drug mother plates, which would provide the serial drug dilutions for the replicate daughter plates, the wells of columns 2 through 12 of standard 96-well microdilution plates (Costar 3795) were filled with 150 μl of the appropriate diluent for each row of drug. The test articles and comparator compounds (300 μl at 101× the highest concentration to be tested) were dispensed into the appropriate wells in column 1. The Biomek 2000 was then used to make 2-fold serial dilutions in the mother plates from column 1 through column 11. The wells of column 12 contained no drug and served as the organism growth control wells for the assay.
The daughter plates were loaded with 190 μL per well of RPMI using the Multidrop 384. The test panels were prepared on the Biomek FX instrument which transferred 2 μL of drug solution from each well of a mother plate to the corresponding well of each daughter plate in a single step.
A standardized inoculum of each test organism was prepared per CLSI methods to equal a 0.5 McFarland standard, followed by a dilution of 1:20. The plates were then inoculated with 10 μL of the diluted inoculum using the Biomek 2000 from low to high drug concentration resulting in a final concentration of approximately 5×10^5 CFU/mL.
Plates were stacked 3-4 high, covered with a lid on the top plate, placed into plastic bags, and incubated at 35° C. for 16 to 20 hr (vancomycin was read for S. aureus after 24 hr incubation time). The MIC was recorded as the lowest concentration of drug that inhibited visible growth of the organism.

C. parapsilosis = C. parapsilosis MMX 2323 (ATCC 22019), cited from earlier work
B. fragilis = test: Agar dilution MIC, anaerobes (Example 5); format: cell-based; settings: Bacteroides fragilis, ATCC25285; B. fragilis MMX 123 (ATCC 25285); QC; read-out: MIC
C. difficile = test: Agar dilution MIC, anaerobes (Example 5); format: cell-based, Clostridium difficile; settings: Clostridioides difficile, read-out: MIC
[4] = S. pyogenes MMX 3820, ERYR CLIR

## CN[C@H](CC(C)C)C(=O)N[C@H]1C(=O)N[C@@H](CC(N)=O)C(=O)N[C@H]2C(=O)N[C@H]3C(=O)N[C@H](C(=O)N[C@H](C(=O)O)c4cc(O)cc(O)c4-c4cc3ccc4O)[C@H](O)c3ccc(c(Cl)c3)Oc3cc2cc(c3O[C@@H]2O[C@H](CO)[C@@H](O)[C@H](O)[C@H]2O[C@H]2C[C@](C)(N)[C@H](O)[C@H](C)O2)Oc2ccc(cc2Cl)[C@H]1O [Vancomycin]
S. aureus; ATCC 29213 / MSSA, S. aureus MMX 101 (ATCC 29213), QC, MSSA
  MIC: 1 µg/mL (≈ 0.69 µM)
S. aureus; MRSA, S. aureus MMX 5373
  MIC: 2 µg/mL (≈ 1.38 µM)
S. aureus; MRSA, S. aureus MMX 6311
  MIC: 0.25 µg/mL (≈ 0.173 µM)
S. aureus; MRSA, S. aureus MMX 9203
  MIC: 2 µg/mL (≈ 1.38 µM)
S. aureus; MRSA, S. aureus MMX 9204
  MIC: 1 µg/mL (≈ 0.69 µM)
S. aureus; MRSA, S. aureus MMX 9205
  MIC: 2 µg/mL (≈ 1.38 µM)
S. pneumoniae [1]; Streptococcus pneumoniae, ATCC49619, S. pneumoniae MMX 6837 (ATCC 49619), QC
  MIC: 0.25 µg/mL (≈ 0.173 µM)
S. pneumoniae [1]; Streptococcus pneumoniae, S. pneumoniae MMX 880, LevR SXTR CCR EryR PenR
  MIC: 0.5 µg/mL (≈ 0.345 µM)
S. pneumoniae [1]; Streptococcus pneumoniae, S. pneumoniae MMX 937, MemR SXTR CCR EryR PenR
  MIC: 0.5 µg/mL (≈ 0.345 µM)
S. pneumoniae [1]; Streptococcus pneumoniae, S. pneumoniae MMX 3959, CCR EryR
  MIC: 0.5 µg/mL (≈ 0.345 µM)
S. pneumoniae [1]; Streptococcus pneumoniae, S. pneumoniae MMX 5440, MemR SXTR CCR EryR PenR
  MIC: 0.25 µg/mL (≈ 0.173 µM)
S. pneumoniae [1]; Streptococcus pneumoniae, S. pneumoniae MMX 5445, MemR SXTR CCR EryR PenR
  MIC: 0.25 µg/mL (≈ 0.173 µM)
S. pneumoniae [1]; Streptococcus pneumoniae, S. pneumoniae MMX 8133, MemR SXTR CCR EryR PenR
  MIC: 0.25 µg/mL (≈ 0.173 µM)
E. faecium; E. faecium MMX 485, VRE vanA
  MIC: >64 µg/mL
E. faecium; Enterococcus faecium, VRE
  MIC: > 64 µg/mL
S. agalactiae; Streptococcus agalactiae, S. agalactiae MMX 3741, ERYR CCR
  MIC: 0.5 µg/mL (≈ 0.345 µM)
S. agalactiae; Streptococcus agalactiae, S. agalactiae MMX 3743, ERYR CCR
  MIC: 0.5 µg/mL (≈ 0.345 µM)
S. agalactiae; Streptococcus agalactiae, S. agalactiae MMX 4077, ERYR CCR
  MIC: 0.5 µg/mL (≈ 0.345 µM)
S. agalactiae; Streptococcus agalactiae, S. agalactiae MMX 4079, ERYR CCR PenR MEMR
  MIC: 2 µg/mL (≈ 1.38 µM)
S. agalactiae; Streptococcus agalactiae, S. agalactiae MMX 4086, ERYR CCR
  MIC: 1 µg/mL (≈ 0.69 µM)
S. pyogenes; [4]
  MIC: 0.5 µg/mL (≈ 0.345 µM)
S. pyogenes; S. pyogenes MMX 3919, ERYR
  MIC: 0.5 µg/mL (≈ 0.345 µM)
S. pyogenes; S. pyogenes MMX 3929, ERYR CCR
  MIC: 0.5 µg/mL (≈ 0.345 µM)
S. pyogenes; S. pyogenes MMX 5091, ERYR CCR
  MIC: 0.5 µg/mL (≈ 0.345 µM)
S. pyogenes; Streptococcus pyogenes
  MIC: 0.5 µg/mL (≈ 0.345 µM)
E. faecalis; E. faecalis MMX 8961
  MIC: >64 µg/mL
E. faecalis; E. faecalis MMX 8962
  MIC: >64 µg/mL
E. faecalis; Enterococcus faecalis
  MIC: > 64 µg/mL
S. pneumoniae [2]
  CLSI QC range of MIC: (0.12-0.5) μg/mL
[3]
  MIC: 2 µg/mL

## OC(Cn1cncn1)(Cn1cncn1)c1ccc(F)cc1F [Fluconazole]
C. parapsilosis; 24 hr
  CLSI QC range of MIC: 0.5 to 4 µg/mL
C. parapsilosis; 48 hr
  CLSI QC range of MIC: 1 to 4 µg/mL

## CCC[C@@H]1C[C@@H](C(=O)N[C@@H]([C@H]2O[C@H](SC)[C@H](O)[C@@H](O)[C@H]2O)[C@H](C)Cl)N(C)C1 [Clindamycin]
E. faecium; E. faecium MMX 485, VRE vanA
  MIC: >32 µg/mL
B. fragilis
  MIC: 1 µg/mL (≈ 2.35 µM)
C. difficile; ATCC700057, C. difficile MMX 4381 (ATCC 700057), QC, CCI
  MIC: 4 µg/mL (≈ 9.41 µM)
C. difficile; C. difficile MMX 8272, ribotype 255, CCI
  MIC: 4 µg/mL (≈ 9.41 µM)
C. difficile; C. difficile MMX 8279, ribotype 005, CCR
  MIC: > 64 µg/mL
C. difficile; C. difficile MMX 8281, ribotype 010, CCR
  MIC: > 64 µg/mL
C. difficile; NCTC13307, C. difficile MMX 5681 (NCTC 13307), ribotype 012, CCR
  MIC: > 64 µg/mL
C. difficile; NCTC13336, C. difficile MMX 5680 (NCTC 13336), ribotype 027, CCI METR
  MIC: 4 µg/mL (≈ 9.41 µM)

## Penicillin
S. pneumoniae [1]; S. pneumoniae MMX 880, LevR SXTR CCR EryR PenR
  MIC: 2 µg/mL
S. pneumoniae [1]; S. pneumoniae MMX 937, MemR SXTR CCR EryR PenR
  MIC: 4 µg/mL
S. pneumoniae [1]; S. pneumoniae MMX 3959, CCR EryR
  MIC: 0.12 µg/mL
S. pneumoniae [1]; S. pneumoniae MMX 5440, MemR SXTR CCR EryR PenR
  MIC: 4 µg/mL
S. pneumoniae [1]; S. pneumoniae MMX 5445, MemR SXTR CCR EryR PenR
  MIC: 4 µg/mL
S. pneumoniae [1]; S. pneumoniae MMX 6837 (ATCC 49619), QC
  MIC: 0.25 µg/mL
S. pneumoniae [1]; S. pneumoniae MMX 8133, MemR SXTR CCR EryR PenR
  MIC: 4 µg/mL
S. agalactiae; S. agalactiae MMX 3741, ERYR CCR
  MIC: 0.03 µg/mL
S. agalactiae; S. agalactiae MMX 3743, ERYR CCR
  MIC: 0.06 µg/mL
S. agalactiae; S. agalactiae MMX 4077, ERYR CCR
  MIC: 0.06 µg/mL
S. agalactiae; S. agalactiae MMX 4079, ERYR CCR PenR MEMR
  MIC: 2 µg/mL
S. agalactiae; S. agalactiae MMX 4086, ERYR CCR
  MIC: 0.06 µg/mL
S. pyogenes; S. pyogenes MMX 3068, EryR
  MIC: ≤0.008 µg/mL
S. pyogenes; [4]
  MIC: ≤0.008 µg/mL
S. pyogenes; S. pyogenes MMX 3919, ERYR
  MIC: ≤0.008 µg/mL
S. pyogenes; S. pyogenes MMX 3929, ERYR CCR
  MIC: ≤0.008 µg/mL
S. pyogenes; S. pyogenes MMX 5091, ERYR CCR
  MIC: ≤0.008 µg/mL
S. pneumoniae [2]
  CLSI QC range of MIC: (0.25-1) μg/mL

## CC[C@H]1OC(=O)[C@H](C)[C@@H](O[C@H]2C[C@@](C)(OC)[C@@H](O)[C@H](C)O2)[C@H](C)[C@@H](O[C@@H]2O[C@H](C)C[C@H](N(C)C)[C@H]2O)[C@](C)(O)C[C@@H](C)C(=O)[C@H](C)[C@@H](O)[C@]1(C)O [Erythromycin]
E. faecium; E. faecium MMX 485, VRE vanA
  MIC: >64 µg/mL
S. pneumoniae [2]
  CLSI QC range of MIC: (0.03-0.12) μg/mL
